Laboratory results published in patent US20160122320A1, “USEFUL COMBINATIONS OF MONOBACTAM ANTIBIOTICS WITH BETA-LACTAMASE INHIBITORS” (Basilea Pharmaceutica AG, priority 2005, published 2016).
Where “and” joins values, the source holds several entries; their conditions need not be identical. Equal entries are not always repeated. Structures can show the parent of a compound that is named as a salt. Blank lines part the entries; values can stand above or below the compound they belong to.

Columns and labels:
Assay in all cases: MIC, NCCLS broth microdilution
Type in all cases: cell-based
Conditions in all cases: for MIC of antibiotic at fixed inhibitor concentration (4 mg/L): MIC of antibiotic compound 1 with the labelled bridged monobactam of formula II and clavulanate, 4 mg/L each; for MIC of antibiotic: antibiotic alone, no inhibitor
[1] = system: Enterobacter cloacae P99
[2] = system: Pseudomonas aeruginosa MK1184
[3] = system: Acinetobacter sp. J2
[4] = system: Klebsiella pneumoniae CF104
[5] = system: Stenotrophomonas malthophilia 1AC736
[6] = system: Serratia marcescens S6
[7] = system: Pseudomonas aeruginosa 1973E
How it was run: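 MIC read by eye as the lowest concentration giving no visible growth after overnight incubation (30° C. or 37° C.), following NCCLS M7-A5 microdilution with ≤1% final DMSO. For combinations, partner compounds (formula II, III-XIII) were fixed at 4 μg/mL each while formula I compounds were titrated.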

[8] = Stenotrophomonas malthophilia 1AC736
[9] = Stenotrophomonas maltophilia 1AC736

- MIC of antibiotic at fixed inhibitor concentration (4 mg/L) [1]: 8 µg/mL
- MIC of antibiotic at fixed inhibitor concentration (4 mg/L) [2]: >32 µg/mL
- MIC of antibiotic at fixed inhibitor concentration (4 mg/L) ([3]; Acinetobacter sp. J2): 16 µg/mL
- MIC of antibiotic at fixed inhibitor concentration (4 mg/L) [4]: 0.5 µg/mL
- MIC of antibiotic at fixed inhibitor concentration (4 mg/L) [5, 8]: 0.125 µg/mL
- MIC of antibiotic at fixed inhibitor concentration (4 mg/L) [6]: 0.25 µg/mL
- MIC of antibiotic at fixed inhibitor concentration (4 mg/L) [7]: 8 µg/mL
Compound: O=C(Nc1cccc(O)c1)N1CC[C@@H]2[C@H]1C(=O)N2S(=O)(=O)[O-].[Na+] [Compound 317]

- MIC of antibiotic at fixed inhibitor concentration (4 mg/L) [1]: 32 µg/mL
- MIC of antibiotic at fixed inhibitor concentration (4 mg/L) [2]: 8 µg/mL
- MIC of antibiotic at fixed inhibitor concentration (4 mg/L) ([3]; Acinetobacter sp. J2): 8 µg/mL
- MIC of antibiotic at fixed inhibitor concentration (4 mg/L) [4]: 1 µg/mL
- MIC of antibiotic at fixed inhibitor concentration (4 mg/L) [5, 8]: 0.125 µg/mL
- MIC of antibiotic at fixed inhibitor concentration (4 mg/L) [6]: 0.125 µg/mL
- MIC of antibiotic at fixed inhibitor concentration (4 mg/L) [7]: 4 µg/mL
Compound: Nc1ccc[n+](CC(=O)N2CC[C@@H]3[C@H]2C(=O)N3S(=O)(=O)[O-])c1 [Compound 107, (1S,5R)-2-[2-(3-aminopyridinium)acetyl]-7-oxo-2,6-diazabicyclo[3.2.0]heptane-6-sulfonate, inner salt]

- MIC of antibiotic [1]: >32 µg/mL
- MIC of antibiotic at fixed inhibitor concentration of 4 mg/L ([1]; with 102 and clavulanate): 8 µg/mL
- MIC of antibiotic at fixed inhibitor concentration of 4 mg/L ([1]; with 324 and clavulanate): 4 µg/mL
- MIC of antibiotic at fixed inhibitor concentration of 4 mg/L ([1]; with 324 and sulbactam): 8 µg/mL
- MIC of antibiotic [2]: 8 µg/mL
- MIC of antibiotic at fixed inhibitor concentration of 4 mg/L ([2]; with 102 and clavulanate): 8 µg/mL
- MIC of antibiotic at fixed inhibitor concentration of 4 mg/L ([2]; with 324 and clavulanate): 8 µg/mL
- MIC of antibiotic at fixed inhibitor concentration of 4 mg/L ([2]; with 324 and sulbactam): 8 µg/mL
- MIC of antibiotic ([3]; Acinetobacter baumannii J2): 16 µg/mL
- MIC of antibiotic at fixed inhibitor concentration of 4 mg/L ([3]; Acinetobacter baumannii J2, with 102 and clavulanate): 8 µg/mL
- MIC of antibiotic at fixed inhibitor concentration of 4 mg/L ([3]; Acinetobacter baumannii J2, with 324 and clavulanate): 8 µg/mL
- MIC of antibiotic at fixed inhibitor concentration of 4 mg/L ([3]; Acinetobacter baumannii J2, with 324 and sulbactam): 2 µg/mL
- MIC of antibiotic [4]: >32 µg/mL
- MIC of antibiotic at fixed inhibitor concentration of 4 mg/L ([4]; with 102 and clavulanate): 1 µg/mL
- MIC of antibiotic at fixed inhibitor concentration of 4 mg/L ([4]; with 324 and clavulanate): 1 µg/mL
- MIC of antibiotic at fixed inhibitor concentration of 4 mg/L ([4]; with 324 and sulbactam): 2 µg/mL
- MIC of antibiotic [5, 9]: 1 µg/mL
- MIC of antibiotic [6]: 0.25 µg/mL
- MIC of antibiotic at fixed inhibitor concentration of 4 mg/L ([6]; with 102 and clavulanate): 0.25 µg/mL
- MIC of antibiotic at fixed inhibitor concentration of 4 mg/L ([6]; with 324 and clavulanate): 0.25 µg/mL
- MIC of antibiotic at fixed inhibitor concentration of 4 mg/L ([6]; with 324 and sulbactam): 0.5 µg/mL
- MIC of antibiotic [7]: 8 µg/mL
- MIC of antibiotic at fixed inhibitor concentration of 4 mg/L ([7]; with 102 and clavulanate): 8 µg/mL
- MIC of antibiotic at fixed inhibitor concentration of 4 mg/L ([7]; with 324 and clavulanate): 16 µg/mL
- MIC of antibiotic at fixed inhibitor concentration of 4 mg/L ([7]; with 324 and sulbactam): 16 µg/mL
Compound: C[C@H](ON1C(=O)[C@@H](NC(=O)/C(=N\OCc2cc(=O)c(O)cn2O)c2csc(N)n2)[C@@H]1C)C(=O)O [Compound 23, (2S)-2-((3S,4S)-3-{(2Z)-2-(2-amino(1,3-thiazol-4-yl))-3-[(1,5-dihydroxy-4-oxo(2-hydropyridyl))methoxy]-3-azaprop-2enoylamino}-4-methyl-2-oxoazetidinyloxy)propanoic acid]

- MIC of antibiotic [1]: 2 µg/mL
- MIC of antibiotic [2]: 32 µg/mL
- MIC of antibiotic ([3]; Acinetobacter baumannii J2): 32 µg/mL
- MIC of antibiotic ([3]; Acinetobacter sp. J2): 32 µg/mL
- MIC of antibiotic [4]: 4 µg/mL
- MIC of antibiotic [5, 8]: 4 µg/mL
- MIC of antibiotic [5, 9]: 4 µg/mL
- MIC of antibiotic [6]: 0.13 µg/mL and 0.125 µg/mL
- MIC of antibiotic [7]: 4 µg/mL
Compound: CO/N=C(\C(=O)N[C@@H]1C(=O)N2C(C(=O)[O-])=C(C[N+]3(C)CCCC3)CS[C@H]12)c1csc(N)n1 [Cefepime]

- MIC of antibiotic at fixed inhibitor concentration (4 mg/L) [1]: 32 µg/mL
- MIC of antibiotic at fixed inhibitor concentration (4 mg/L) [2]: 32 µg/mL
- MIC of antibiotic at fixed inhibitor concentration (4 mg/L) ([3]; Acinetobacter sp. J2): >32 µg/mL
- MIC of antibiotic at fixed inhibitor concentration (4 mg/L) [4]: 0.125 µg/mL
- MIC of antibiotic at fixed inhibitor concentration (4 mg/L) [5, 8]: 0.125 µg/mL
- MIC of antibiotic at fixed inhibitor concentration (4 mg/L) [6]: 0.25 µg/mL
- MIC of antibiotic at fixed inhibitor concentration (4 mg/L) [7]: 4 µg/mL
Compound: NC(=S)c1cc[n+](CC(=O)N2CC[C@@H]3[C@H]2C(=O)N3S(=O)(=O)[O-])cc1 [Compound 118, (1S,5R)-2-{2-[4-(aminothioxomethyl)pyridinium]acetyl}-7-oxo-2,6-diazabicyclo[3.2.0]heptane-6-sulfonate, inner salt]

- MIC of antibiotic at fixed inhibitor concentration (4 mg/L) [1]: 32 µg/mL
- MIC of antibiotic at fixed inhibitor concentration (4 mg/L) [2]: >32 µg/mL
- MIC of antibiotic at fixed inhibitor concentration (4 mg/L) ([3]; Acinetobacter sp. J2): >32 µg/mL
- MIC of antibiotic at fixed inhibitor concentration (4 mg/L) [4]: 0.125 µg/mL
- MIC of antibiotic at fixed inhibitor concentration (4 mg/L) [5, 8]: 0.25 µg/mL
- MIC of antibiotic at fixed inhibitor concentration (4 mg/L) [6]: 0.25 µg/mL
- MIC of antibiotic at fixed inhibitor concentration (4 mg/L) [7]: 4 µg/mL
Compound: CC(C)c1cc[n+](CC(=O)N2CC[C@@H]3[C@H]2C(=O)N3S(=O)(=O)[O-])cc1 [Compound 113, (1S,5R)-2-{2-[4-(isopropyl)pyridinium]acetyl}-7-oxo-2,6-diazabicyclo[3.2.0]heptane-6-sulfonate, inner salt]

- MIC of antibiotic at fixed inhibitor concentration (4 mg/L) [1]: 32 µg/mL
- MIC of antibiotic at fixed inhibitor concentration (4 mg/L) [2]: >32 µg/mL
- MIC of antibiotic at fixed inhibitor concentration (4 mg/L) ([3]; Acinetobacter sp. J2): >32 µg/mL
- MIC of antibiotic at fixed inhibitor concentration (4 mg/L) [4]: 2 µg/mL
- MIC of antibiotic at fixed inhibitor concentration (4 mg/L) [5, 8]: 0.25 µg/mL
- MIC of antibiotic at fixed inhibitor concentration (4 mg/L) [6]: 0.5 µg/mL
- MIC of antibiotic at fixed inhibitor concentration (4 mg/L) [7]: 4 µg/mL
Compound: O=C(Nc1ccc(O)c(O)c1)N1CC[C@@H]2[C@H]1C(=O)N2S(=O)(=O)[O-].[Na+] [Compound 306, Sodium(1S,5R)-2-[N-(3,4-dihydroxyphenyl)carbamoyl]-7-oxo-2,6-diazabicyclo[3.2.0]heptane-6-sulfonate]
